Results on 21 compounds are retold here after ChEMBL document CHEMBL5143687, “Design, synthesis and biological evaluation of hydrogen sulfide-releasing isochroman-4-one derivatives as new antihypertensive agent candidates” (Bioorg Med Chem, 2022).

Data set [1] deals with Aortic ring. The experiment in a line: Vasorelaxant activity in Sprague-Dawley rat aortic rings assessed as reduction in noradrenaline-induced contractions at 10 uM relative to control. Format: functional, Thoracic aorta. On the set-up: scale not given: the % may be the effect or the level left.
The test system of data set [2] is Aortic ring. The experiment in a line: Vasorelaxant activity in Sprague-Dawley rat aortic rings assessed as reduction in noradrenaline-induced contractions at 100 uM relative to control. Format: functional, Thoracic aorta. Set-up: scale not given: the % may be the effect or the level left.
For data set [3], the system named is Rattus norvegicus. In words: Antihypertensive activity in spontaneous hypertensive rat model assessed as systolic blood pressure at 40 mg/kg, po measured after 8 hr by tail cuff method (reference value: 186.1 +/- 4.6 mmHg). In kind it is functional.
The test system of data set [4] is Rattus norvegicus. In words: Antihypertensive activity in spontaneous hypertensive rat model assessed as systolic blood pressure at 40 mg/kg, po measured after 2 hr by tail cuff method (reference value: 186.1 +/- 4.6 mmHg). In kind it is functional.
For data set [5], the system named is Rattus norvegicus. The experiment in a line: Antihypertensive activity in spontaneous hypertensive rat model assessed as systolic blood pressure at 40 mg/kg, po measured after 1 hr by tail cuff method (reference value: 186.1 +/- 4.6 mmHg). In kind it is functional.
In data set [6] the test system is Rattus norvegicus. In words: Antihypertensive activity in spontaneous hypertensive rat model assessed as systolic blood pressure at 40 mg/kg, po measured after 4 hr by tail cuff method (reference value: 186.1 +/- 4.6 mmHg). In kind it is functional.
For data set [7], the system named is Rattus norvegicus. The experiment in a line: Antihypertensive activity in spontaneous hypertensive rat model assessed as systolic blood pressure at 40 mg/kg, po measured after 6 hr by tail cuff method (reference value: 186.1 +/- 4.6 mmHg). Format: functional.
Data set [8] is described as follows: Prodrug conversion in sodium phosphate buffer assessed as H2S release in presence of L-cysteine by UV-Vis spectrophotometry. In kind it is ADME.
For the next data set, the system named is CHO. In words: Cytotoxicity against CHO cells assessed as cell viability at 100 uM after 24 hrs MTT assay. Format: toxicity, cell-based, Cricetulus griseus. Conditions: chinese hamster; call rule not given here. Background: Formazan colour is commonly taken as a measure of viable cells.
In data set [9] the test system is Aortic ring. The experiment in a line: Vasorelaxant activity in Sprague-Dawley rat aortic rings assessed as reduction in noradrenaline-induced contractions. Conditions: Thoracic aorta, DDE = dose-dependent effect. In kind it is functional, tissue-based.
For data set [10], the system named is Rattus norvegicus. The experiment in a line: Antihypertensive activity in spontaneous hypertensive rat model assessed as systolic blood pressure at 80 mg/kg, po measured after 2 hr by tail cuff method (reference value: 186.1 +/- 4.6 mmHg). Format: functional.
Data set [11] concerns Rattus norvegicus. The experiment in a line: Antihypertensive activity in spontaneous hypertensive rat model assessed as systolic blood pressure at 80 mg/kg, po measured after 4 hr by tail cuff method (reference value: 186.1 +/- 4.6 mmHg). Format: functional.
The test system of data set [12] is Rattus norvegicus. The experiment in a line: Antihypertensive activity in spontaneous hypertensive rat model assessed as systolic blood pressure at 80 mg/kg, po measured after 1 hr by tail cuff method (reference value: 186.1 +/- 4.6 mmHg). Format: functional.
Data set [13] deals with Rattus norvegicus. In words: Antihypertensive activity in spontaneous hypertensive rat model assessed as systolic blood pressure at 80 mg/kg, po measured after 8 hr by tail cuff method (reference value: 186.1 +/- 4.6 mmHg). In kind it is functional.
For data set [14], the system named is Rattus norvegicus. The experiment in a line: Antihypertensive activity in spontaneous hypertensive rat model assessed as systolic blood pressure at 80 mg/kg, po measured after 6 hr by tail cuff method (reference value: 186.1 +/- 4.6 mmHg). Format: functional.

For the compound `COc1ccc2c(c1O)COC(C)C2=O` (centres undefined), the Activity with Aortic ring [1] came to 4.3%; in the data set with Aortic ring [2] it was 50.7%.
For `COc1ccccc1N1CCN(CC(O)COc2cccc3ccccc23)CC1` (centres undefined) [NAFTOPIDIL], the Activity in the data set with Rattus norvegicus [3] turned out to be 170.5 mmHg; in the data set on Rattus norvegicus [4], 148.1 mmHg; in the data set on Rattus norvegicus [5] it was 161.4 mmHg; with Rattus norvegicus [6] it was 153.7 mmHg; in the data set on Rattus norvegicus [7], 158.2 mmHg.
Take `COc1ccc2c(c1OCCCCCOc1ccc(C(N)=S)cc1)COC(C)C2=O` (centres undefined): the Activity entry is “Active” in data set [8]; “Non-Toxic” in the data set on CHO; “Dde” with Aortic ring [9]; 30.2% with Aortic ring [1]; 55.4% in the data set with Aortic ring [2].
As to `COc1cc2c(cc1OCCCCCCOc1ccc(C(N)=S)cc1)C(=O)C(C)OC2` (centres undefined), the Activity is 137.4 mmHg in the data set with Rattus norvegicus [10]; “Active” in [8]; “Non-Toxic” with CHO; “Dde” with Aortic ring [9]; 142.2 mmHg with Rattus norvegicus [11]; 170.2 mmHg with Rattus norvegicus [12]. Besides, the Activity in the data set with Rattus norvegicus [13] is given as 169.4 mmHg; in the data set on Aortic ring [1], 49.6%; in the data set with Rattus norvegicus [14], 153.6 mmHg; in the data set on Aortic ring [2], 66.7%.
For the compound `COc1cc2c(cc1O)C(=O)C(C)OC2` (centres undefined), the Activity with Aortic ring [1] turned out to be 0.4%; in the data set on Aortic ring [2] it was 6.5%.
Consider `COc1cc2c(cc1OCCCCCCCCOc1ccc(C(N)=S)cc1)C(=O)C(C)OC2` (centres undefined), for which the Activity in the data set on Aortic ring [1] worked out at 19.9%; with Aortic ring [2], 31.2%.
In the case of `[Na+].[SH-]` [SODIUM HYDROSULFIDE], the Activity amounted to 18.7% in the data set with Aortic ring [1] and 52.9% in the data set with Aortic ring [2].
In the same order, the values of `COc1ccc2c(c1OCCCOc1ccc(-c3cc(=S)ss3)cc1)COC(C)C2=O` (centres undefined) are 5.4% and 9.2%.
For the compound `COc1cc2c(cc1OCCCOc1ccc(C(N)=S)cc1)C(=O)C(C)OC2` (centres undefined), the Activity result with CHO is “Non-Toxic”; in the data set with Aortic ring [9] it was “Dde”; in the data set on Aortic ring [1] it was 45.4%; in the data set on Aortic ring [2], 61.8%.
As to `COc1cc2c(cc1OCCCCCOc1ccc(C(N)=S)cc1)C(=O)C(C)OC2` (centres undefined), the Activity in the data set on Aortic ring [1] is 6.6%; with Aortic ring [2], 28.2%.
In the same order, the values of `COc1ccc2c(c1OCCCCCCOc1ccc(C(N)=S)cc1)COC(C)C2=O` (centres undefined) are 20% and 31.1%.
With `COc1ccc2c(c1OCCOc1ccc(-c3cc(=S)ss3)cc1)COC(C)C2=O` (centres undefined), the values for the Activity in the data set on Aortic ring [1] and in the data set on Aortic ring [2] were 5.5% and 18.2%, respectively.
`COc1ccc2c(c1OCCCCCCCCOc1ccc(C(N)=S)cc1)COC(C)C2=O` (centres undefined): the Activity result is “Active” in data set [8]; “Non-Toxic” in the data set with CHO; “Dde” in the data set with Aortic ring [9]; 25% in the data set on Aortic ring [1]; 56.9% in the data set with Aortic ring [2].
Consider `CC1OCc2c(ccc(O)c2O)C1=O` (racemic), for which the Activity is on record as 165.4 mmHg in the data set with Rattus norvegicus [10]; 151.5 mmHg in the data set on Rattus norvegicus [11]; 170.9 mmHg with Rattus norvegicus [12]; 150.6 mmHg with Rattus norvegicus [13]; 140.1 mmHg in the data set with Rattus norvegicus [14].
On to `COc1cc2c(cc1OCCCCCCCCCCCCOc1ccc(C(N)=S)cc1)C(=O)C(C)OC2` (centres undefined), for which the Activity with Aortic ring [1] came out at 2.2%; in the data set with Aortic ring [2], 12.5%.
In the same order, the values of `COc1ccc2c(c1OCCOc1ccc(C(N)=S)cc1)COC(C)C2=O` (centres undefined) are 19.8% and 31.4%.
The matching figures for `NC(=S)c1ccc(O)cc1`: 1.7% and 17.3%.
The matching figures for `COc1ccc2c(c1OCCCCOc1ccc(C(N)=S)cc1)COC(C)C2=O` (centres undefined): 2.9% and 35.1%.
As to `COc1ccc2c(c1OCCCOc1ccc(C(N)=S)cc1)COC(C)C2=O` (centres undefined), the Activity is given as 3.7% with Aortic ring [1] and 15.7% with Aortic ring [2].
The matching figures for `COc1cc2c(cc1OCCCCOc1ccc(C(N)=S)cc1)C(=O)C(C)OC2` (centres undefined): 5.1% and 4.3%.
In the same order, the values of `COc1ccc2c(c1OCCCCCCCCCCCCOc1ccc(C(N)=S)cc1)COC(C)C2=O` (centres undefined) are 12.6% and 25%.
